Laboratory results taken from patent US20220324835A1 (Nurix Therapeutics, Inc., priority 2018, published 2022).

Key:
Cbl-b [1] = target: T1, Cbl-b (Homo sapiens, UniProt Q13191); assay: Cbl-b inhibition assay (Cbl-b activity assay, FRET, Biological Example 1; 100 mM NaCl, 60 nM Src kinase); format: biochemical; settings: upper bound stated in text lists; read-out: IC50 values in the Cbl-b inhibition assay of Biological Example 1
Procedure, shortened: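 N-terminally biotinylated Avi-tagged Cbl-b was mixed with Src kinase, UbcH5B covalently conjugated to Bodipy-fluorescein ubiquitin, and streptavidin-terbium. Src phosphorylation lets Cbl-b bind UbcH5B-Ub, giving terbium-fluorescein FRET; inhibition is read as loss of FRET signal.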

Cbl-b [2] = target: T1, Cbl-b; assay: Cbl-b activity assay (Cbl-b inhibition assay), TR-FRET of Cbl-b interaction with UbcH5B-Ub; format: biochemical; settings: assay buffer with 100 mM NaCl, 60 nM Src kinase; read-out: Cbl-b activity IC50
Procedure, shortened: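 UbcH5B (C85K) conjugated to N-terminally Bodipy-Fluorescein-labeled ubiquitin served as the fluorescent partner. After compound preincubation, Src kinase (60 nM) with 1 mM ATP and 5 mM MgCl2 (final) was added for 1.5 h, followed by a further 1 h incubation. Some values were obtained with 50 mM NaCl and 30 nM Src.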

Cbl-b (residues 36-427) = Cbl-b (residues 36-427) (Homo sapiens, UniProt Q13191); assay: Cbl-b binding assay (SPR, Biacore T200); settings: 20° C., 1:1 binding model
Sequence of Cbl-b (residues 36-427) (Q13191 36-427): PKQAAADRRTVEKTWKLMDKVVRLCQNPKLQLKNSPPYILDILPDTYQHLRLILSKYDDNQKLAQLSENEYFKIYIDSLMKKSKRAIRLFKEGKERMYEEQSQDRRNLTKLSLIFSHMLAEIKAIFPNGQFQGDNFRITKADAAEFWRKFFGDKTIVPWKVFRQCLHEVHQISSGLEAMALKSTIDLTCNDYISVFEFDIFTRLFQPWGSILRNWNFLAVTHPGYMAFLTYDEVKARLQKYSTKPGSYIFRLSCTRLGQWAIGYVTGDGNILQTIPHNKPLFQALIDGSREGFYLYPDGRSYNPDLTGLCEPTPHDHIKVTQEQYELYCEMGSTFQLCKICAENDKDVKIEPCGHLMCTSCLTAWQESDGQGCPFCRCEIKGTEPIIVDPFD
Procedure, shortened: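 Steps: capture protein on NeutrAvidin surface; inject compound dilutions (8 or 10 points from 100 or 50 μM) 50 s; allow 90-180 s dissociation; regenerate 20 s with 0.3 M NaCl. Runs at 20° C in HEPES pH 7.5/100 mM NaCl/2% DMSO; 1:1 fitting.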

T1 sequence (Q13191 36-427): as above

| SMILES | IC50 (Cbl-b [1]) | IC50 (Cbl-b [2]) | Kd (Cbl-b (residues 36-427)) |
| --- | --- | --- | --- |
| C[C@H](Sc1nncn1C)c1cccc(NC(=O)c2cc(C(=O)N3CCC(O)CC3)ccn2)c1 [Compound 145, (S)-4-(4-hydroxypiperidine-1-carbonyl)-N-(3-(1-((4-methyl-4H-1,2,4-triazol-3-yl)thio)ethyl)phenyl)picolinamide] | ≤ 10 µM | 1 to 3 µM | 3 to 10 µM |
| C[C@H](Sc1nncn1C)c1cccc(NC(=O)c2cc(C(=O)N3CC[C@@H](N)C3)ccn2)c1 [Compound 146, 4-((R)-3-aminopyrrolidine-1-carbonyl)-N-(3-((S)-1-((4-methyl-4H-1,2,4-triazol-3-yl)thio)ethyl)phenyl)picolinamide] | ≤ 10 µM | 3 to 10 µM | 3 to 10 µM |
| C[C@H](Sc1nncn1C)c1cccc(NC(=O)c2cc(C(=O)N3CC[C@H](N)C3)ccn2)c1 [Compound 147, 4-((S)-3-aminopyrrolidine-1-carbonyl)-N-(3-((S)-1-(4-methyl-4H-1,2,4-triazol-3-ylthio)ethyl)phenyl)picolinamide] | ≤ 10 µM | 3 to 10 µM | 3 to 10 µM |
| C[C@H](Sc1nncn1C)c1cccc(NC(=O)c2cc(C(=O)N3CCC[C@@H](O)C3)ccn2)c1 [Compound 149, 4-((R)-3-hydroxypiperidine-1-carbonyl)-N-(3-((S)-1-((4-methyl-4H-1,2,4-triazol-3-yl)thio)ethyl)phenyl)picolinamide] | ≤ 10 µM | 3 to 10 µM | > 10 µM |
| C[C@H](Sc1nncn1C)c1cccc(NC(=O)c2cc(C(=O)N3CCC[C@H](O)C3)ccn2)c1 [Compound 150, 4-((S)-3-hydroxypiperidine-1-carbonyl)-N-(3-((S)-1-((4-methyl-4H-1,2,4-triazol-3-yl)thio)ethyl)phenyl)picolinamide] | ≤ 10 µM | 3 to 10 µM | > 10 µM |
| C[C@H](Sc1nncn1C)c1cccc(NC(=O)c2cc(C(=O)N3C[C@@H](O)C[C@H]3C)ccn2)c1 [Compound 152, 4-((2R,4S)-4-hydroxy-2-methylpyrrolidine-1-carbonyl)-N-(3-((S)-1-((4-methyl-4H-1,2,4-triazol-3-yl)thio)ethyl)phenyl)picolinamide] | ≤ 10 µM | 3 to 10 µM | 3 to 10 µM |
| C[C@H](Sc1nncn1C)c1cccc(NC(=O)c2cc(C(=O)N3C[C@H](O)C[C@H]3C)ccn2)c1 [Compound 153, 4-((2R,4R)-4-hydroxy-2-methylpyrrolidine-1-carbonyl)-N-(3-((S)-1-((4-methyl-4H-1,2,4-triazol-3-yl)thio)ethyl)phenyl)picolinamide] | ≤ 10 µM | 3 to 10 µM | > 10 µM |
| C[C@H](Sc1nncn1C)c1cccc(NC(=O)c2cc(C(=O)N3C[C@@H](O)C[C@@H]3C)ccn2)c1 [Compound 154, 4-((2S,4S)-4-hydroxy-2-methylpyrrolidine-1-carbonyl)-N-(3-((S)-1-((4-methyl-4H-1,2,4-triazol-3-yl)thio)ethyl)phenyl)picolinamide] | ≤ 10 µM | 3 to 10 µM | > 10 µM |
| C[C@H](Sc1nncn1C)c1cccc(NC(=O)c2cc(C(=O)N3C[C@H](O)[C@@H](O)C3)ccn2)c1 [Compound 155, 4-[[(3S,4S)-3,4-dihydroxypyrrolidin-1-yl]carbonyl]-N-[3-[(1S)-1-[(4-methyl-4H-1,2,4-triazol-3-yl)sulfanyl]ethyl]phenyl]pyridine-2-carboxamide] | ≤ 10 µM | 1 to 3 µM | 3 to 10 µM |
| C[C@H](Sc1nncn1C)c1cccc(NC(=O)c2cc(C(=O)NC[C@@H](C)O)ccn2)c1 [Compound 156, N^4-((R)-2-hydroxypropyl)-N^2-(3-((S)-1-((4-methyl-4H-1,2,4-triazol-3-yl)thio)ethyl)phenyl)pyridine-2,4-dicarboxamide] | ≤ 10 µM | 3 to 10 µM | 3 to 10 µM |
| C[C@H](O)CNC(=O)c1ccnc(C(=O)Nc2cccc([C@H](C)Sc3nncn3C)c2)c1 [Compound 157, N^4-((S)-2-hydroxypropyl)-N^2-(3-((S)-1-((4-methyl-4H-1,2,4-triazol-3-yl)thio)ethyl)phenyl)pyridine-2,4-dicarboxamide] | ≤ 10 µM | 3 to 10 µM | 3 to 10 µM |
| C[C@H](Sc1nncn1C)c1cccc(NC(=O)c2cc(C(=O)N3CC[C@@H](N(C)C)C3)ccn2)c1 [Compound 159, 4-((R)-3-(dimethylamino)pyrrolidine-1-carbonyl)-N-(3-((S)-1-((4-methyl-4H-1,2,4-triazol-3-yl)thio)ethyl)phenyl)picolinamide] | ≤ 10 µM | 3 to 10 µM | 3 to 10 µM |
| C[C@H](Sc1nncn1C)c1cccc(NC(=O)c2cc(C(=O)N3CC[C@H](N(C)C)C3)ccn2)c1 [Compound 160, 4-((S)-3-(dimethylamino)pyrrolidine-1-carbonyl)-N-(3-((S)-1-((4-methyl-4H-1,2,4-triazol-3-yl)thio)ethyl)phenyl)picolinamide] | ≤ 10 µM | 3 to 10 µM | 3 to 10 µM |
